The assay has as its target T1, IRAK1 (Homo sapiens, UniProt P51617).
T1 construct: active recombinant IRAK1 enzyme
In words: SPR ([…] model); supported by KINOMEscan active-site competition binding and CETSA in A2780 cells.

In general, Kd refers to a measure of binding affinity in units of concentration. Read a high Kd as a looser complex.

T1 sequence (P51617 whole entry): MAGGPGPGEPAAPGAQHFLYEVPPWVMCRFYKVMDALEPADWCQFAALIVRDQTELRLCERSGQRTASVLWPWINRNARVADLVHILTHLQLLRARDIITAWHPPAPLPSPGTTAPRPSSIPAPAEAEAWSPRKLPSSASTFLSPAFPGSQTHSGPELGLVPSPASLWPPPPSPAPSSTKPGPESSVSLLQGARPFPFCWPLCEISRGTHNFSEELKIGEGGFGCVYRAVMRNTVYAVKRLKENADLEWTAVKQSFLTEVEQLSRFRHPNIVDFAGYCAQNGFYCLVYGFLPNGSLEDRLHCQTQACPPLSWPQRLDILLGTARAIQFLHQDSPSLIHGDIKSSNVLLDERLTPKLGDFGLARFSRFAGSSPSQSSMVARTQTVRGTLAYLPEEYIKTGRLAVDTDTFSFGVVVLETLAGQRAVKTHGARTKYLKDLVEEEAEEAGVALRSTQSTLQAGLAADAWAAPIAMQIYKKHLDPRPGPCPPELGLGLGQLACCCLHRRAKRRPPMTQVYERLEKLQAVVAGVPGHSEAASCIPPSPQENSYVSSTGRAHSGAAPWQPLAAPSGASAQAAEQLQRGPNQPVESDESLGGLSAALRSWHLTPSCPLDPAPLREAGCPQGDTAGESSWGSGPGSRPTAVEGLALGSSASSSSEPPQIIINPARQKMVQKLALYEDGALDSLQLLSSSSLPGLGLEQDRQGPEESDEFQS

Compound `O=C(NO)c1ccc2[nH]c(=O)c(CCCc3ccccc3)nc2c1` [TCS2210] gave a Kd of 1760 nM.

(Values after PMC11127949, “Selective targeting of IRAK1 attenuates low molecular weight hyaluronic acid-induced stemness and non-canonical STAT3 activation in epithelial ovarian cancer” (Cell Death & Disease, 2024).)
